Patent US20150329558A1, “FUSED HETEROCYCLIC COMPOUNDS AS ION CHANNEL MODULATORS” (Gilead Sciences, Inc., priority 2011, published 2015)

Molecular target: wild-type human cardiac sodium channel, hNav1.5 (late INa) (Homo sapiens, UniProt Q14524)
Assay: Late INa screening assay (QPatch whole cell patch clamp)
Type: cell-based
Conditions: percent block of late INa, compound at 1 μM, 10 μM Tefluthrin, HEK293 hNav1.5; read-out: Late INa 1 μM
Experimental: The late sodium current (Late INa) and peak sodium current (Peak INa) assays are performed on an automated electrophysiology platform, QPatch 16× (Sophion Bioscience, Copenhagen, Denmark), which uses the whole cell patch clamp technique to measure currents through the cell membrane of up to 16 cells at a time. The assay uses an HEK293 (human embryonic kidney) cell line heterologously expressing the wild-type human cardiac sodium channel, hNav1.5, purchased from Millipore (Billerica, Mass.). No beta subunits were coexpressed with the Na channel alpha subunit. Cells are maintained with standard tissue culture procedures and stable channel expression is maintained with 400 μg/mL Geneticin in the culture medium. […] Experiments are carried out at 23-25° C. For both the Late INa and Peak INa assays, series resistance compensation is set to 100% and series resistance and whole-cell compensation are performed automatically. Currents are digitized at 25 kHz and low-pass filtered at 12 kHz and 10 kHz for the late and peak INa assays, respectively. Currents through open sodium channels are automatically recorded and stored in the Sophion Bioscience Oracle database (Sophion Bioscience, Copehagen, Denmark). Analysis is performed using QPatch Assay and database software and data are compiled in Excel. Compound stocks are routinely made by the Gilead Sample Bank in plastic vials to 10 mM in dimethyl sulfoxide (DMSO). In some cases, when compounds are not soluble in DMSO, they are made in 100% ethanol. Stocks are sonicated as necessary. […] The intracellular solution used to perfuse the inside of the cells for both the Late INa and Peak INa assays contains: 120 mM CsF, 20 mM CsCl, 5 mM EGTA, 5 mM HEPES and pH adjusted to 7.4 with CsOH. Compounds are diluted in extracellular solution to 1 μM in glass vials and then transferred to glass well plates before robotic addition to the cells. […] For the Late INa assay, sodium channels are activated every 10 seconds (0.1 Hz) by depolarizing the cell membrane to −20 mV for 250 milliseconds (ms) from a holding potential of −120 mV. In response to a −20 mV voltage step, typical hNav1.5 sodium currents activate rapidly to a peak negative current and then inactivate nearly completely within 3-4 ms. All compounds were tested to determine their activity in blocking the late sodium current. Late INa was generated by adding 10 μM Tefluthrin (pyrethroid) to the extracellular solution while recording Na currents. To confirm the block of late INa observed using the automated screening method, a second late INa enhancer (ATX-II) and the manual patch clamp method were used. ATX-II and tefluthrin occupy distinct, non-overlapping binding sites and modify Na^+ channel function differently to increase late INa. […] For the purposes of the screening, late INa is defined as the mean current between 225 ms and 250 ms after stepping to −20 mV to activate Na channels. […] Results are reported as percent block of late INa.

wild-type human cardiac sodium channel, hNav1.5 (late INa), sequence (Q14524 whole entry): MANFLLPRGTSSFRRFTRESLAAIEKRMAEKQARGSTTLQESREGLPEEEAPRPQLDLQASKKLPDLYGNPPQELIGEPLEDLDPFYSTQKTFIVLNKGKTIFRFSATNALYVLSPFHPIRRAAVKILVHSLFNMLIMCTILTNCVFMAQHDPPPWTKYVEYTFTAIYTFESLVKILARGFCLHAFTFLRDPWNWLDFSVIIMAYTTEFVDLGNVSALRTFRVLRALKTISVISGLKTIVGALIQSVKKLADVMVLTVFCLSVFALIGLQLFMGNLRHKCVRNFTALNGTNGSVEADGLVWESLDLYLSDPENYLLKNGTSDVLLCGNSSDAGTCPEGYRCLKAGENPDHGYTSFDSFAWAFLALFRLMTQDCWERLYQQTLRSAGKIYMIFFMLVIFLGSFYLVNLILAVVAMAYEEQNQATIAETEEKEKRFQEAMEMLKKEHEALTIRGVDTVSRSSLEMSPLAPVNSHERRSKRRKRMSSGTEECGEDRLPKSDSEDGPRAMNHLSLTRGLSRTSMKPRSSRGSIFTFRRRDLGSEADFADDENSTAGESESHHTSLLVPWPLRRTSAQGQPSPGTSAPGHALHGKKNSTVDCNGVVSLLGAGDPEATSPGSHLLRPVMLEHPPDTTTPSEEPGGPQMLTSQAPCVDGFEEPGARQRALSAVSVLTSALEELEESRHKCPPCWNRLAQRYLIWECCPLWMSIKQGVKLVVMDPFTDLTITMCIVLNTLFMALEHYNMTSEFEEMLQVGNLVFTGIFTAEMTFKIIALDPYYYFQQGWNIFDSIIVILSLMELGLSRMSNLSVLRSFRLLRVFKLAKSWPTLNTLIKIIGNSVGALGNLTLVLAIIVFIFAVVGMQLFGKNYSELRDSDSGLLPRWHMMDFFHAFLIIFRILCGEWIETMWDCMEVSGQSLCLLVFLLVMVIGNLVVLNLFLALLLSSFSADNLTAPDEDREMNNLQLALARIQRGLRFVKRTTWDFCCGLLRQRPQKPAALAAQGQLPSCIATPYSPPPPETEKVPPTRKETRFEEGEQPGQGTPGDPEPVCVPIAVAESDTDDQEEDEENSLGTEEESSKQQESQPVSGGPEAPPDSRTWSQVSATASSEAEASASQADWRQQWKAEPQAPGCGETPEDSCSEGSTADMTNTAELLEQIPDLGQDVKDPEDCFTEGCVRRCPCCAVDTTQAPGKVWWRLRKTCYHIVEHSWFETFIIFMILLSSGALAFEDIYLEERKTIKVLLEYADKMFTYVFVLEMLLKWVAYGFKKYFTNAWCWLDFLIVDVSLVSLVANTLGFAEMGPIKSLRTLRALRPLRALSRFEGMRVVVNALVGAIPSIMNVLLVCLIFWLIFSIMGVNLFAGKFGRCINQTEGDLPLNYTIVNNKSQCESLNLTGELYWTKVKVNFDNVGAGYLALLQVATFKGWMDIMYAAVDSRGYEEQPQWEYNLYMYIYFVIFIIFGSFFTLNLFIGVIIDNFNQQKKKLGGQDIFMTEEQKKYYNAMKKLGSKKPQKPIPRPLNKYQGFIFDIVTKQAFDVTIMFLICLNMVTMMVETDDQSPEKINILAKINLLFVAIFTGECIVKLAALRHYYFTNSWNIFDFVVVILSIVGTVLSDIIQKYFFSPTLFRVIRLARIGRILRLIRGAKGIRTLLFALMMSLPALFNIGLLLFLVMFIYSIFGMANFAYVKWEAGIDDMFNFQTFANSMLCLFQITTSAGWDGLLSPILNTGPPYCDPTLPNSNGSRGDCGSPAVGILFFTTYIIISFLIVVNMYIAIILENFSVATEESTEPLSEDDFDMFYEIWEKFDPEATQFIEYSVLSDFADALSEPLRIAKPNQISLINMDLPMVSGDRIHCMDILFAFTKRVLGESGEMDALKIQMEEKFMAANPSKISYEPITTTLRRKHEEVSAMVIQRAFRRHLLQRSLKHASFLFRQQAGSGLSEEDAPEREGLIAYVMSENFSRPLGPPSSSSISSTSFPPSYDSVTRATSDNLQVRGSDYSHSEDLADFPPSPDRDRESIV

O=C(N1CCc2ccc(-c3ccc(C(F)(F)F)cc3)cc2C1)N1CCC[C@H]1CO [IX-102, (S)-(2-(hydroxymethyl)pyrrolidin-1-yl)(7-(4-(trifluoromethyl)phenyl)-3,4-dihydroisoquinolin-2(1H)-yl)methanone]
inhibition at 1 µM: 27%

O=c1c2cc(-c3ccc(OC(F)(F)F)cc3)ccc2nnn1OCc1cccnc1 [II-59, 3-(pyridin-3-ylmethoxy)-6-(4-(trifluoromethoxy)phenyl)benzo[d][1,2,3]triazin-4(3H)-one]
inhibition at 1 µM: 22%

O=C(N1CCc2ccc(-c3ccc(C(F)(F)F)cc3)cc2C1)N1CC(F)C1 [IX-95, (3-fluoroazetidin-1-yl)(7-(4-(trifluoromethyl)phenyl)-3,4-dihydroisoquinolin-2(1H)-yl)methanone]
inhibition at 1 µM: 25%

O=C(N1CCCC1)N1CCc2ccc(-c3ccc(OC(F)(F)F)cc3)cc2C1 [IX-122, pyrrolidin-1-yl(7-(4-(trifluoromethoxy)phenyl)-3,4-dihydroisoquinolin-2(1H)-yl)methanone]
inhibition at 1 µM: 36%

CC1CN(C(=O)N2CCc3ccc(-c4ccc(C(F)(F)F)cc4)cc3C2)C1 [IX-107, (3-methylazetidin-1-yl)(7-(4-(trifluoromethyl)phenyl)-3,4-dihydroisoquinolin-2(1H)-yl)methanone]
inhibition at 1 µM: 24%

O=C(N1CCOCC1)N1CCc2ccc(-c3ccc(C(F)(F)F)cc3)cc2C1 [IX-52, morpholino(7-(4-(trifluoromethyl)phenyl)-3,4-dihydroisoquinolin-2(1H)-yl)methanone]
inhibition at 1 µM: 26%

Cc1cc(C(=O)N2CCc3ccc(-c4ccc(C(F)(F)F)cc4)cc3C2)nc(N)n1 [IX-34, (2-amino-6-methylpyrimidin-4-yl)(7-(4-(trifluoromethyl)phenyl)-3,4-dihydroisoquinolin-2(1H)-yl)methanone]
inhibition at 1 µM: 16%

O=C(N1CCc2ccc(-c3ccc(C(F)(F)F)cc3)cc2C1)N1CCC(F)C1 (stereo not shown) [IX-94, (3-fluoropyrrolidin-1-yl)(7-(4-(trifluoromethyl)phenyl)-3,4-dihydroisoquinolin-2(1H)-yl)methanone]
inhibition at 1 µM: 33%

O=C(c1ccn[nH]1)N1CCc2ccc(-c3ccc(C(F)(F)F)cc3)cc2C1 [IX-36, (1H-pyrazol-5-yl)(7-(4-(trifluoromethyl)phenyl)-3,4-dihydroisoquinolin-2(1H)-yl)methanone]
inhibition at 1 µM: 20%

CC(C)(C)OC(=O)N1CCC[C@@H]1C(=O)N1CCc2ccc(-c3ccc(C(F)(F)F)cc3)cc2C1 [IX-114, (R)-tert-butyl 2-(7-(4-(trifluoromethyl)phenyl)-1,2,3,4-tetrahydroisoquinoline-2-carbonyl)pyrrolidine-1-carboxylate]
inhibition at 1 µM: 20%

O=C(c1cncnc1)N1CCc2ccc(-c3ccc(C(F)(F)F)cc3)cc2C1 [IX-33, pyrimidin-5-yl(7-(4-(trifluoromethyl)phenyl)-3,4-dihydroisoquinolin-2(1H)-yl)methanone]
inhibition at 1 µM: 21%

O=C(Cn1nnc2ccc(-c3ccc(Oc4ccc(Cl)cc4)cc3)cc2c1=O)N1CCN(c2ncccn2)CC1 [II-65, 6-(4-(4-chlorophenoxyl)phenyl)-3-(2-oxo-2-(4-(pyrimidin-2-yl)piperazin-1-yl)ethyl)benzo[d][1,2,3]triazin-4(3H)-one]
inhibition at 1 µM: 19%

O=C(NCc1ncccn1)N1CCc2ccc(-c3ccc(OC(F)(F)F)cc3)cc2C1 [IX-123, N-(pyrimidin-2-ylmethyl)-7-(4-(trifluoromethoxy)phenyl)-3,4-dihydroisoquinoline-2(1H)-carboxamide]
inhibition at 1 µM: 17%

O=c1c2cc(-c3ccc(OC(F)(F)F)cc3)ccc2cnn1Cc1cc(-c2ccccn2)on1 [III-41, 2-((5-(pyridin-2-yl)isoxazol-3-yl)methyl)-7-(4-(trifluoromethoxy)phenyl)phthalazin-1 (2H)-one]
inhibition at 1 µM: 24%

O=C1c2cc(-c3ccc(C(F)(F)F)cc3F)ccc2OCN1Cc1ncccn1 [VIII-18, 6-(2-fluoro-4-(trifluoromethyl)phenyl)-3-(pyrimidin-2-ylmethyl)-2H-benzo[e][1,3]oxazin-4(3H)-one]
inhibition at 1 µM: 54%

O=C(NCc1ccccc1)N1CCc2ccc(-c3ccc(C(F)(F)F)cc3)cc2C1 [IX-41, N-benzyl-7-(4-(trifluoromethyl)phenyl)-3,4-dihydroisoquinoline-2(1H)-carboxamide]
inhibition at 1 µM: 27%

N#Cc1cccc(Cn2ncc3ccc(-c4ccc(OC(F)(F)F)cc4)cc3c2=O)n1 [III-12, 6-((1-oxo-7-(4-(trifluoromethoxy)phenyl)phthalazin-2(1H)-yl)methyl)picolinonitrile]
inhibition at 1 µM: 21%

Cc1nn(C)cc1C(=O)N1CCc2ccc(-c3ccc(C(F)(F)F)cc3)cc2C1 [IX-28, (1,3-dimethyl-1H-pyrazol-4-yl)(7-(4-(trifluoromethyl)phenyl)-3,4-dihydroisoquinolin-2(1H)-yl)methanone]
inhibition at 1 µM: 24%

O=C(N1CCC1)N1CCc2ccc(-c3ccc(C(F)(F)F)cc3)cc2C1 [IX-88, azetidin-1-yl(7-(4-(trifluoromethyl)phenyl)-3,4-dihydroisoquinolin-2(1H)-yl)methanone]
inhibition at 1 µM: 25%

CS(=O)(=O)C1CN(C(=O)N2CCc3ccc(-c4ccc(C(F)(F)F)cc4)cc3C2)C1 [IX-104, (3-(methylsulfonyl)azetidin-1-yl)(7-(4-(trifluoromethyl)phenyl)-3,4-dihydroisoquinolin-2(1H)-yl)methanone]
inhibition at 1 µM: 20%

O=C(c1ncccn1)N1CCc2ccc(-c3ccc(Cl)c(F)c3)cc2C1 [IX-24, (7-(4-chloro-3-fluorophenyl)-3,4-dihydroisoquinolin-2(1H)-yl)(pyrimidin-2-yl)methanone]
inhibition at 1 µM: 19%

CC1CCN(C(=O)N2CCc3ccc(-c4ccc(C(F)(F)F)cc4)cc3C2)C1 (stereo not shown) [IX-90, (3-methylpyrrolidin-1-yl)(7-(4-(trifluoromethyl)phenyl)-3,4-dihydroisoquinolin-2(1H)-yl)methanone]
inhibition at 1 µM: 27%

Cc1nonc1Cn1ncc2ccc(-c3ccc(OC(F)(F)F)cc3)cc2c1=O [III-11, 2-((4-methyl-1,2,5-oxadiazol-3-yl)methyl)-7-(4-(trifluoromethoxy)phenyl)phthalazin-1 (2H)-one]
inhibition at 1 µM: 30%

CC1(C)Oc2ccc(-c3ccc(OC(F)(F)F)cc3)cc2C(=O)N1Cc1ccccn1 [VIII-13, 2,2-dimethyl-3-(pyridin-2-ylmethyl)-6-(4-(trifluoromethoxy)phenyl)-2H-benzo[e][1,3]oxazin-4(3H)-one]
inhibition at 1 µM: 20%

Nc1n[nH]c(C(=O)N2CCc3ccc(-c4ccc(C(F)(F)F)cc4)cc3C2)n1 [IX-111, (3-amino-1H-1,2,4-triazol-5-yl)(7-(4-(trifluoromethyl)phenyl)-3,4-dihydroisoquinolin-2(1H)-yl)methanone]
inhibition at 1 µM: 27%

O=c1c2cc(-c3ccc(OC(F)(F)F)cc3)ccc2nnn1OCc1ncccn1 [II-56, 3-(pyrimidin-2-ylmethoxy)-6-(4-(trifluoromethoxy)phenyl)benzo[d][1,2,3]triazin-4(3H)-one]
inhibition at 1 µM: 22%

O=c1c2cc(-c3ccc(OC(F)(F)F)cc3)ccc2cnn1Cc1ccccc1 [III-6, 2-benzyl-7-(4-(trifluoromethoxy)phenyl)phthalazin-1(2H)-one]
inhibition at 1 µM: 18%

O=c1c2cc(-c3ccc(OC(F)(F)F)cc3)ccc2nnn1C1CC1 [II-22, 3-cyclopropyl-6-(4-(trifluoromethoxy)phenyl)benzo[d][1,2,3]triazin-4(3H)-one]
inhibition at 1 µM: 21%

O=c1c2cc(-c3ccc(OC(F)(F)F)cc3)ccc2nnn1Cn1nc2ccccc2n1 [II-28, 3-((2H-benzo[d][1,2,3]triazol-2-yl)methyl)-6-(4-(trifluoromethoxy)phenyl)benzo[d][1,2,3]triazin-4(3H)-one]
inhibition at 1 µM: 19%

O=C(c1ncccn1)N1CCc2ccc(-c3ccc(C(F)(F)F)cc3F)cc2C1 [IX-22, (7-(2-fluoro-4-(trifluoromethyl)phenyl)-3,4-dihydroisoquinolin-2(1H)-yl)(pyrimidin-2-yl)methanone]
inhibition at 1 µM: 29%

Cc1nc(Cn2nnc3ccc(-c4ccc(OCC(F)(F)F)nc4)cc3c2=O)no1 [Compound V-2, 3-((5-methyl-1,2,4-oxadiazol-3-yl)methyl)-6-(6-(2,2,2-trifluoroethoxy)pyridin-3-yl)benzo[d][1,2,3]triazin-4(3H)-one]
inhibition at 1 µM: 17%
